Results as given in patent EP4702986A1, “POLYPEPTIDE AND USE THEREOF” (Biocells (Beijing) Biotech Co., Ltd., priority 2023, dated 2024).
Entries after “also recorded” stand apart in the source; their conditions may differ. Numbered stars: 1 amine (or outer) side, 2 acyl side, 3 side chain; on linkers, the order of the positions; unused ones are H or OH. Square brackets hold non-standard residues; d marks the D form. Side chains are listed from the residue outwards. Peptide text beside a SMILES is read from it. * marks the point of attachment. ξ: configuration not given here. γGlu = O=C(O)[C@H](CCC(=O)[*:2])N[*:1]; Feruloyl = COc1cc(/C=C/C(=O)*)ccc1O; ξ2Nal = NC(Cc1ccc2ccccc2c1)C(=O)O; Fumaroyl = O=C(O)/C=C/C(=O)*; Lauroyl = CCCCCCCCCCCC(=O)*; AEEA = NCCOCCOCC(=O)O

Tests used:
human ETB receptor = molecular target: T1, human ETB receptor (Homo sapiens, UniProt P24530); experiment: Determination of EC50 of polypeptides against human ETB receptor (IP-One Gq kit); format: cell-based; settings: 293T-17 cells transfected with PCDNA3.1-hETB; read-out: hETBR agonist activity EC50/nM
T1 construct: expressed in transfected cells; host or cells: 293T-17 cells, transient transfection
T1 sequence (P24530 27-442): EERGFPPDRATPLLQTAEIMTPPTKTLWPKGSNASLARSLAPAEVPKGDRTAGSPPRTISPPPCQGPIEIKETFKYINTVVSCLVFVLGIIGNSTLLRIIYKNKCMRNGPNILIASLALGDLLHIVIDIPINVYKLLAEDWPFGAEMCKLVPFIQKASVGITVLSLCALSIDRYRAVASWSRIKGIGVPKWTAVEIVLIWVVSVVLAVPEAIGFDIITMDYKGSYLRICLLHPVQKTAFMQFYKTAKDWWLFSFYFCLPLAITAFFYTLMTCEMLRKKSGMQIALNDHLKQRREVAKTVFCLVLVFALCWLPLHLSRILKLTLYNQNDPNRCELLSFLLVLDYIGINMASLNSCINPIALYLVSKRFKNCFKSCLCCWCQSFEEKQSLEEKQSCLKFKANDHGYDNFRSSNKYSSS
Description: 293T-17 cells were seeded at a density of 650,000 cells per well in a 6-well plate and cultured overnight in an incubator at 37°C and 5% CO2. Afterward, the cells were transfected with an expression vector, PCDNA3.1-hETB which contained a human ETB receptor gene, at a plasmid concentration of 2.5 µg per well. The cells were further cultured for 48 hours, and green fluorescence expression was observed under a fluorescence microscope. The cells were then digested with trypsin and counted. The activity of compounds on the human ETB receptor was determined with the IP-One Gq kit from Cisbio Bioassays. The cells were suspended in Stim Buffer provided in the kit and the cell suspension was added to a 96-well detection plate at 7 µL cell suspension (containing 30,000 cells) per well. The polypeptides to be tested (prepared according to the Preparation Example of the invention) were diluted in Stim B to obtain a gradient of 11 concentration points. For each concentration point, the polypeptides to be tested were dissolved in Stim B to be at a concentration of 2×, and added at 7 µL to the test cells, while 7 µL of PBS solution was added to the cells in the negative control wells. The plate was sealed and incubated at 37°C for 1 hour in a cell culture incubator. Detection wells, positive control wells containing human endothelin ET1 (ET1: […] (C1-C15,C3-C11)), and PBS control wells were each added with 3 µL of IP1 d2 working solution and 3 µL of IP1 Tb cryptotate Antibody working solution. The plate was then sealed and incubated in the dark at room temperature (25°C±5°C) for 1 hour. The plate seal was removed, and the […] at 665 nm and 620 nm was measured with an ID5 microplate reader. The ratio of the acceptor emission signal to the donor emission signal, i.e., (signal at 665 nm/signal at 620 nm)×10^4, was calculated for each well. With F representing the average value of values of signal at 665 nm/signal at 620 nm for the test samples at various concentrations, a scatterplot was plotted, where the abscissa represented the F value, and the ordinate represented the logarithmic value of the peptide concentration. A curve was fitted with an appropriate method to calculate EC50 values of the polypeptides against the human ETB receptor. Another method was provided for fitting a curve where activation rate of the test polypeptides at each concentration relative to the positive control sample human endothelin ET1 was calculated first with the method in Example 1, and a scatterplot was plotted, where the abscissa represented the activation rate, and the ordinate represented the logarithmic value of the polypeptide concentration. A curve was fitted with an appropriate method to calculate the EC50 values of the polypeptides against the human ETB receptor.

male SD rats [1] = settings: male SD rats, subcutaneous, observed for 48 hours
Description: In an experiment about acute toxicity of subcutaneous administration, male SD rats weighing 200-230 g were dosed in a range between 60 µg/Kg and 960 µg/Kg. Observation was made for 48 hours after subcutaneous administration. Toxic response and mortality of the rats were preliminarily observed, and time of death and doses without mortality were recorded. The level of acute toxicity of the polypeptides was preliminarily determined based on the doses without mortality.

SD rats = settings: rat, in vivo
Description: Male SD rats were anesthetized with isoflurane, and their neck hairs were shaved. A midline incision was made on the neck to expose the trachea. A ventilator and anesthesia machine for small animals were turned on, with concentration of an anesthetic gas set to 1.2, and its exit channel connected to an inlet of the ventilator. Tidal volume of the ventilator was set to 2 mL, the respiratory rate was 90 breaths/minute, and the respiratory ratio was 1:2. An outlet end of the ventilator was connected to a plastic hose, which was inserted into the rat's airway.
A machine and a software of a biological signal data acquisition and analysis system were turned on. One end of a data acquisition plate was connected to the plastic hose, and the other end was connected to a collector valve connected with a 1-mL syringe. The syringe was filled with heparinized saline, which was injected into the data acquisition plate to expel the air in the entire space until the heparinized saline flowed out from the other end of the plastic hose. The right common carotid arteries of the rats were isolated. A dead knot was made at the distal end and a slipknot at the proximal end of a right common carotid artery. A 1/2-sized incision was made in the artery between the knot with a microscissor, and the plastic hose with heparinized saline was inserted into the incision and fixed to prevent back-and-forth movement. The initial value of the blood pressure was set to zero with the zero-adjustment valve of the biological signal data acquisition and analysis system. The slipknot at the proximal end of the common carotid artery was untied, and real-time blood pressure data of the animal appeared on the software. […] The dosages of IRL1620, BX34, and BX229 were 5 µg/Kg, 42 µg/kg, and 6.6 µg/Kg, respectively.

mouse model of tMCAO = experiment: Garcia JH scoring in mouse model of tMCAO; format: in vivo, C57/6J mice
Description: Fifty-one male C57/6J mice, aged 10-12 weeks, weighing 25-30g, were housed for at least 2 days prior to the experiment to adapt to the environment (SPF Biotech). A mouse model of tMCAO was established. The mice were anesthetized with isoflurane. Their body temperature was controlled by a thermostatic blanket and monitored and maintained at 37±0.5°C. A middle incision was made in the skin on the mouse skull, the skin was pulled outward, and a bendable microneedle tip was fixed to the surface of the left parietal bone of the mouse skull. A middle incision on the neck was made to separate the right common carotid artery (CCA), external carotid artery (ECA) and internal carotid artery (ICA). According to the method of Longa (Longa et al., 1989), a silicone rubber-coated suture (RWD Life Science, suture end diameter: 0.22 mm-0.23 mm, MSMC23B120PK50) was introduced through an external carotid artery incision surgery and was slowly advanced through the internal carotid artery towards the origin of the middle cerebral artery. To ensure a sustained and successful occlusion of the middle cerebral artery, we monitored local cerebral blood flow of all stroke animals with a laser speckle flowmeter (generally, the blood flow can be reduced by 40-60% after stabilized). The suture was removed 45 min after the insertion for modeling, and the incision was sutured. Afterward, 1 mL of 37°C warm saline was injected subcutaneously, and the mice were placed on a heating pad until recovery. To alleviate pain, the mice were injected subcutaneously with Tilidine after awakening from anesthesia.
Successfully modeled C57 tMCAO mice were randomly assigned into three groups: a normal saline group, a 30µg/Kg BX229-Na administration group, and a 100µg/Kg BX229-Na administration group. Each group was administered once subcutaneously in the neck 4.5 hours after occlusion (D1), and was administered once more at the same sites and at the same time points on D3 and D6. A sham group included 6 animals. 2 mL/kg was administrated subcutaneously in the neck. Garcia JH scoring was made on D7 and D14 after administration. After the completion of the scoring on D14, the mice were euthanized and harvested for infarcted brain tissues, to extract total proteins. Changes in protein markers VEGF-A and BDNF in each experimental group were detected by ELISA. Table 19: Experimental Grouping and Dosing Regimen

[2] = Determination of half-lives of polypeptides (plasma, LC-MS); settings: C57 BL/6, mouse, plasma, iv
in vivo = settings: male, SD, rat, in vivo, iv
Description: (§1) In an experiment about acute toxicity of intravenous administration, male SD rats weighing 200-230 g were dosed in a range between 480 µg/Kg and 30 µg/Kg via tail vein injection in a descending order of dosage. […] Toxic response and mortality of the rats were preliminarily observed, and time of death and doses without mortality of the rats were recorded. The level of acute toxicity of the polypeptides was preliminarily determined based on the doses without mortality.

male SD rats [3] = experiment: in vivo; settings: one animal per row, observed 24 hours
Description: as §1

[4] = 30µg/Kg subcutaneously on D1, D3, D6
[5] = tMCAO mice, 30µg/Kg s.c. on D1, D3, D6

SMILES: CC[C@H](C)[C@H](NC(=O)[C@H](CC(=O)O)NC(=O)[C@H](CCCCN)NC(=O)[C@H](Cc1c[nH]cn1)NC(=O)[C@H](C)NC(=O)[C@H](Cc1ccccc1)NC(=O)[C@H](Cc1ccc(O)cc1)NC(=O)[C@@H](NC(=O)[C@H](C)NC(=O)[C@H](CCC(=O)O)NC(=O)[C@H](CCC(=O)O)NC(=O)[C@H](CC(=O)O)NC(=O)/C=C/C(=O)O)C(C)C)C(=O)N[C@H](C(=O)NC(Cc1ccc2ccccc2c1)C(=O)O)[C@@H](C)CC (some centres unmarked) [BX-13-2] (Fumaroyl-DEEAVYFAHKDII[ξ2Nal]-OH; C-terminus assumed)
- EC50 (human ETB receptor): 11.8 nM

SMILES: CC[C@H](C)[C@H](NC(=O)[C@H](CC(=O)O)NC(=O)[C@H](CCCCN)NC(=O)[C@H](Cc1c[nH]cn1)NC(=O)[C@H](C)NC(=O)[C@H](Cc1ccccc1)NC(=O)[C@H](Cc1ccc(O)cc1)NC(=O)[C@@H](NC(=O)[C@H](C)NC(=O)[C@H](CCC(=O)O)NC(=O)[C@H](CCC(=O)O)NC(=O)[C@H](CC(=O)O)NC(=O)/C=C/c1ccc(O)c(OC)c1)C(C)C)C(=O)N[C@H](C(=O)N[C@@H](Cc1c[nH]c2ccccc12)C(=O)O)[C@@H](C)CC [BX-15] (Feruloyl-DEEAVYFAHKDIIW-OH; C-terminus assumed)
- EC50 (human ETB receptor): 41.1 nM

SMILES: CCCCCCCCCCCC(=O)N[C@@H](CCC(=O)NCCOCCOCC(=O)NCCCC[C@H](NC(=O)[C@H](Cc1c[nH]cn1)NC(=O)[C@H](C)NC(=O)[C@H](Cc1ccccc1)NC(=O)[C@H](Cc1ccc(O)cc1)NC(=O)[C@@H](NC(=O)[C@H](C)NC(=O)[C@H](CCC(=O)O)NC(=O)[C@H](CCC(=O)O)NC(=O)[C@H](CC(=O)O)NC(=O)/C=C/C(=O)O)C(C)C)C(=O)N[C@@H](CC(=O)O)C(=O)N[C@H](C(=O)N[C@H](C(=O)N[C@@H](Cc1c[nH]c2ccccc12)C(=O)O)[C@@H](C)CC)C(C)C)C(=O)O [BX-229] (Fumaroyl-DEEAVYFAHK([AEEA-γGlu-Lauroyl])DVIW-OH)
- acute toxicity of subcutaneous administration compared with IRL1620 (male SD rats [1]): much lower
- maximum extent of decrease in blood pressure, of the baseline blood pressure (SD rats): 17.0%±2.0%
- time to the lowest blood pressure (SD rats): 20 to 35 min
- Maximum percentage of blood pressure reduction relative to baseline blood pressure (n = 3) (SD rats; iv): 17.0%±2.0%
- Time from baseline blood pressure to the lowest blood pressure (SD rats; iv): 20 to 30 min
- Garcia JH-15 score on D7 compared with the normal saline group (mouse model of tMCAO; [4]): better scores than the normal saline group
- Garcia JH-15 score on D14 compared with the normal saline group (mouse model of tMCAO; [4]): better scores than that of the normal saline group
- Garcia JH-15 score on D7 compared with the normal saline group (mouse model of tMCAO; 100µg/Kg subcutaneously on D1, D3, D6): better scores than the normal saline group
- Garcia JH-15 score on D7 compared with the normal saline group (mouse model of tMCAO; [5]): better scores
- Garcia JH-15 score on D14 compared with the normal saline group (mouse model of tMCAO; [5]): better scores
- Garcia JH-15 score on D7 compared with the normal saline group (mouse model of tMCAO; tMCAO mice, 100µg/Kg s.c. on D1, D3, D6): better scores
- Garcia JH-15 score on D14 compared with the normal saline group (mouse model of tMCAO; tMCAO mice, 100µg/Kg s.c. on D1, D3, D6, P < 0.05): significantly different
- total score of the Garcia JH-15 score, higher than in the normal saline group by (mouse model of tMCAO; tMCAO mice, D7, 100µg/Kg s.c. on D1, D3, D6): 1 point
- half-life [2]: 1.28 h
- MTD at 24 h (in vivo): 0.06 mg/kg
- Observations of Animal Status (male SD rats [3]; intravenous (tail vein) 60 µg/Kg): No obvious reaction within 1 hour; developed rapid breathing at 1 hour; recovered to normal after 10 minutes
- Observations of Animal Status (male SD rats [3]; intravenous (tail vein) 90 µg/Kg): Died at 1 hour after administration; also recorded: Developed rapid breathing at 25 minutes after administration; recovered after 25 minutes; showed no willingness to move; also recorded: Developed rapid breathing and the body turned purple at 1 hour after administration; partially recovered after 30 minutes; also recorded: Developed rapid breathing and diarrhea at 45 minutes after administration; recovered after 25 minutes; also recorded: Developed rapid breathing at 44 minutes after administration; died of convulsions at 52 minutes after administration; also recorded: Developed rapid breathing at 43 minutes after administration; recovered after 30 minutes
- Observations of Animal Status (male SD rats [3]; intravenous (tail vein) 120 µg/Kg): Died at 26 minutes after administration; had white discharge in the nasal cavity and developed diarrhea
